PubChem BioAssay AID330 (DTP/NCI, 2004)
Several values for one entry are separate records, joined by “and”; a condition that tells them apart may be missing. Equal values may be shown once. Inconclusive results and toxic doses are left out.

System: P388 leukemia ip, CD2F1 mice, survival T/C
Assay: NCI In Vivo Anticancer Drug Screen. Data for tumor model P388 Leukemia (intraperitoneal) in CD2F1 (CDF1) mice
Conditions: endpoint: median survival time, higher = longer survival
How it was run: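 Mice carrying the transplanted tumor received test compound or vehicle. Survival was recorded in each group, and the value is the treated-group measurement divided by that of the vehicle-treated control group.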

For `COc1cccc2c1C(=O)c1c(O)c3c(c(O)c1C2=O)C[C@@](O)(C(C)=O)C[C@@H]3OC1CC(N)C(O)C(C)O1` (stereo partly drawn), the T/C (dose: 0.06 mg/kg/injection, schedule: Q01DX009 (ip), vehicle: water) was 104 % of control and 118 % of control, the T/C (dose: 0.06 mg/kg/injection, schedule: Q03HX008 (ip), vehicle: saline) was 118 % of control and the T/C (dose: 0.08 mg/kg/injection, schedule: Q01DX005 (ip), vehicle: saline) was 118 % of control. The T/C (dose: 0.12 mg/kg/injection, schedule: Q01DX005 (ip), vehicle: water) was 114 % of control, the T/C (dose: 0.13 mg/kg/injection, schedule: Q03HX008 (ip), vehicle: saline) was 120 % of control and the T/C (dose: 0.16 mg/kg/injection, schedule: Q01DX005 (ip), vehicle: saline) was 150 % of control and 167 % of control. For the same molecule, the T/C (dose: 0.16 mg/kg/injection, schedule: Q01DX009 (ip), vehicle: saline) was 168 % of control, the T/C (dose: 0.21 mg/kg/injection, schedule: Q01DX009 (ip), vehicle: water) was 150 % of control and the T/C (dose: 0.25 mg/kg/injection, schedule: Q01DX005 (ip), vehicle: water) was 112 % of control. For the same molecule, the T/C (dose: 0.25 mg/kg/injection, schedule: Q04DX003 (ip), vehicle: saline) was 100 % of control, the T/C (dose: 0.32 mg/kg/injection, schedule: Q01DX001 (ip), vehicle: saline) was 150 % of control and the T/C (dose: 0.32 mg/kg/injection, schedule: Q01DX005 (ip), vehicle: saline) was 175 % of control. For the same molecule, the T/C (dose: 0.32 mg/kg/injection, schedule: Q01DX009 (ip), vehicle: saline) was 166 % of control, the T/C (dose: 0.32 mg/kg/injection, schedule: Q03HX040 (ip), vehicle: saline) was 116 % of control and the T/C (dose: 0.39 mg/kg/injection, schedule: Q01DX009 (ip), vehicle: saline) was 172 % of control. The T/C (dose: 0.42 mg/kg/injection, schedule: Q01DX009 (ip), vehicle: water) was 150 % of control and 155 % of control, the T/C (dose: 0.5 mg/kg/injection, schedule: Q01DX001 (ip), vehicle: saline) was 108 % of control and the T/C (dose: 0.5 mg/kg/injection, schedule: Q01DX005 (ip), vehicle: water) was 107 % of control. The T/C (dose: 0.5 mg/kg/injection, schedule: Q01DX005 (oral), vehicle: water) was 105 % of control, the T/C (dose: 0.5 mg/kg/injection, schedule: Q01DX010 (ip), vehicle: saline) was 163 % of control and the T/C (dose: 0.5 mg/kg/injection, schedule: Q04DX003 (ip), vehicle: saline) was 109 % of control. For the same molecule, the T/C (dose: 0.63 mg/kg/injection, schedule: Q01DX001 (ip), vehicle: saline) was 166 % of control, the T/C (dose: 0.63 mg/kg/injection, schedule: Q01DX009 (ip), vehicle: saline) was 171 % of control and the T/C (dose: 0.63 mg/kg/injection, schedule: Q03HX040 (ip), vehicle: saline) was 112 % of control. The T/C (dose: 0.64 mg/kg/injection, schedule: Q01DX001 (ip), vehicle: saline) was 160 % of control, the T/C (dose: 0.75 mg/kg/injection, schedule: Q04DX003 (ip), vehicle: saline) was 110 % of control and 119 % of control and the T/C (dose: 0.83 mg/kg/injection, schedule: Q01DX009 (ip), vehicle: water) was 164 % of control and 169 % of control. For the same molecule, the T/C (dose: 1.0 mg/kg/injection, schedule: Q01DX001 (ip), vehicle: saline) was 115 % of control, the T/C (dose: 1.0 mg/kg/injection, schedule: Q01DX005 (oral), vehicle: water) was 102 % of control and the T/C (dose: 1.0 mg/kg/injection, schedule: Q01DX010 (ip), vehicle: saline) was 172 % of control. For the same molecule, the T/C (dose: 1.0 mg/kg/injection, schedule: Q04DX002 (ip), vehicle: water) was 158 % of control, the T/C (dose: 1.0 mg/kg/injection, schedule: Q04DX003 (iv), vehicle: saline) was 98 % of control and the T/C (dose: 1.08 mg/kg/injection, schedule: Q01DX009 (ip), vehicle: saline) was 172 % of control. The T/C (dose: 1.08 mg/kg/injection, schedule: Q04DX003 (ip), vehicle: saline) was 150 % of control and 152 % of control, the T/C (dose: 1.08 mg/kg/injection, schedule: Q04DX003 (ip), vehicle: water) was 157 % of control and the T/C (dose: 1.25 mg/kg/injection, schedule: Q01DX001 (ip), vehicle: saline) was 154 % of control. The T/C (dose: 1.25 mg/kg/injection, schedule: Q01DX005 (ip), vehicle: saline) was 162 % of control, the T/C (dose: 1.25 mg/kg/injection, schedule: Q03HX008 (ip), vehicle: saline) was 167 % of control and the T/C (dose: 1.3 mg/kg/injection, schedule: Q01DX001 (ip), vehicle: water) was 154 % of control. For the same molecule, the T/C (dose: 1.5 mg/kg/injection, schedule: Q04DX003 (ip), vehicle: saline) was 116 % of control and 117 % of control, the T/C (dose: 1.67 mg/kg/injection, schedule: Q01DX009 (ip), vehicle: water) was 123 % of control and the T/C (dose: 1.8 mg/kg/injection, schedule: Q01DX001 (ip), vehicle: water) was 162 % of control. The T/C (dose: 1.8 mg/kg/injection, schedule: Q01DX009 (ip), vehicle: saline) was 163 % of control, the T/C (dose: 1.8 mg/kg/injection, schedule: Q04DX003 (ip), vehicle: saline) was 154 % of control and the T/C (dose: 1.8 mg/kg/injection, schedule: Q04DX003 (ip), vehicle: water) was 160 % of control. The T/C (dose: 2.0 mg/kg/injection, schedule: Q01DX001 (ip), vehicle: saline) was 114 % of control, the T/C (dose: 2.0 mg/kg/injection, schedule: Q01DX005 (ip), vehicle: water) was 153 % of control and the T/C (dose: 2.0 mg/kg/injection, schedule: Q01DX005 (oral), vehicle: water) was 114 % of control. The T/C (dose: 2.0 mg/kg/injection, schedule: Q03HX024 (ip), vehicle: saline) was 156 % of control, the T/C (dose: 2.0 mg/kg/injection, schedule: Q04DX003 (iv), vehicle: saline) was 102 % of control and the T/C (dose: 2.4 mg/kg/injection, schedule: Q01DX001 (ip), vehicle: water) was 163 % of control. The T/C (dose: 2.5 mg/kg/injection, schedule: Q03HX008 (ip), vehicle: saline) was 170 % of control, the T/C (dose: 3.0 mg/kg/injection, schedule: Q01DX001 (ip), vehicle: saline) was 150 % of control and 153 % of control and the T/C (dose: 3.0 mg/kg/injection, schedule: Q01DX009 (ip), vehicle: saline) was 104 % of control. The T/C (dose: 3.2 mg/kg/injection, schedule: Q01DX001 (ip), vehicle: water) was 171 % of control, the T/C (dose: 4.0 mg/kg/injection, schedule: Q01DX001 (ip), vehicle: saline) was 160 % of control and the T/C (dose: 4.0 mg/kg/injection, schedule: Q01DX004 (ip), vehicle: saline) was 99 % of control. The T/C (dose: 4.0 mg/kg/injection, schedule: Q01DX005 (ip), vehicle: water) was 164 % of control, the T/C (dose: 4.0 mg/kg/injection, schedule: Q01DX005 (oral), vehicle: water) was 104 % of control and the T/C (dose: 4.0 mg/kg/injection, schedule: Q04DX003 (iv), vehicle: saline) was 104 % of control and 113 % of control and 121 % of control. The T/C (dose: 4.2 mg/kg/injection, schedule: Q01DX001 (ip), vehicle: water) was 174 % of control, the T/C (dose: 4.5 mg/kg/injection, schedule: Q01DX001 (ip), vehicle: saline) was 166 % of control and the T/C (dose: 4.5 mg/kg/injection, schedule: Q04DX003 (ip), vehicle: saline) was 159 % of control. For the same molecule, the T/C (dose: 5.0 mg/kg/injection, schedule: Q01DX001 (ip), vehicle: saline) was 159 % of control and 174 % of control, the T/C (dose: 5.0 mg/kg/injection, schedule: Q01DX009 (ip), vehicle: water) was 100 % of control and the T/C (dose: 5.0 mg/kg/injection, schedule: Q04DX003 (ip), vehicle: saline) was 118 % of control. The T/C (dose: 5.0 mg/kg/injection, schedule: Q04DX003 (ip), vehicle: water) was 118 % of control, the T/C (dose: 5.6 mg/kg/injection, schedule: Q01DX001 (ip), vehicle: water) was 106 % of control and the T/C (dose: 6.0 mg/kg/injection, schedule: Q04DX003 (ip), vehicle: saline) was 122 % of control. For the same molecule, the T/C (dose: 7.5 mg/kg/injection, schedule: Q01DX001 (ip), vehicle: water) was 116 % of control, the T/C (dose: 8.0 mg/kg/injection, schedule: Q01DX001 (ip), vehicle: saline) was 124 % of control and the T/C (dose: 8.0 mg/kg/injection, schedule: Q01DX005 (oral), vehicle: water) was 102 % of control. For the same molecule, the T/C (dose: 8.0 mg/kg/injection, schedule: Q04DX003 (iv), vehicle: saline) was 150 % of control, the T/C (dose: 10.0 mg/kg/injection, schedule: Q01DX009 (ip), vehicle: water) was 100 % of control and the T/C (dose: 12.0 mg/kg/injection, schedule: Q04DX003 (ip), vehicle: saline) was 150 % of control. The T/C (dose: 12.5 mg/kg/injection, schedule: Q04DX003 (ip), vehicle: saline) was 115 % of control, the T/C (dose: 16.0 mg/kg/injection, schedule: Q01DX005 (oral), vehicle: water) was 103 % of control and the T/C (dose: 16.0 mg/kg/injection, schedule: Q04DX003 (iv), vehicle: saline) was 104 % of control. The T/C (dose: 20.0 mg/kg/injection, schedule: Q01DX009 (ip), vehicle: water) was 110 % of control, the T/C (dose: 0.3 micrograms/kg/injection, schedule: Q03HX008 (ip), vehicle: saline) was 123 % of control and the T/C (dose: 0.6 micrograms/kg/injection, schedule: Q03HX040 (ip), vehicle: saline) was 109 % of control. For the same molecule, the T/C (dose: 7.5 micrograms/kg/injection, schedule: Q03HX024 (ip), vehicle: saline) was 155 % of control and the T/C (dose: 16.3 micrograms/kg/injection, schedule: Q03HX024 (ip), vehicle: saline) was 165 % of control.
